One series has as its system complementary RNA. Briefly: Thermal denaturation experiment (Tm) of DNA strand with complementary RNA (Example 49). The series is classed as binding. As to conditions: duplex with complementary RNA, equimolar 0.5 μM in 1×PBS; first derivative of 254 nm absorbance curve. The protocol: Each DNA strand was mixed with complementary RNA in equimolar concentration of 0.5 μM in 1×PBS. Total 2.5 mL solution was prepared for each duplex and the mixture was heated at 90° C. for 2 min and was allowed to cool down over the course of several hours. The mixtures were then stored at 4° C. for 2 hrs. Absorbance at 254 nm was recorded at an interval of 0.5 min starting the temperature gradient from 15° C. to 90° C. with rise of 0.5° C./minute, using a Perkin Elmer UV-spectrophotometer equipped with a Peltier unit. The 254 nm absorbance was plotted against the temperature and the Tm values were calculated from the respective first derivative of each curve.

Series [1] relates to Apolipoprotein B (Apo B) (NM_000384). Briefly: Apo B gene expression in Hep3B cells after Lipofectamine 2000 transfection, real-time PCR SYBR green (Example 50). The series is classed as cell-based, Homo Sapiens. To be noted: for IC50: read-out: IC50 (nM) (rounded up to single digit); for pIC50: Complete IC50 data evaluated by SYBR green, 24 hours, 3 biological replicates, read-out: IC50; for activity compared to Mipomersen (120) / potency compared to the corresponding stereorandom oligonucleotide mixture (Oligonucleotide 118): from Table E-19 IC50, Hep3B. The procedure: After checking OD all oligonucleotide candidate molecules were diluted to a starting concentration of 20 μM. Multidose forward transfection experiment was setup in 96-well plates using Hep3B cells (ATCC®, Cat. HB-8064™) using Lipofectamine 2000 (Life Technologies, Cat. 11668-019) transfection reagent.
2×10^4 Hep3B cells per well were seeded and incubated for 24 hours at 37° C. in a CO2 incubator in 100 μl of antibiotic free MEM medium (Life Technologies, Cat. 11095098) containing 10% FBS and 1% Glutamax I (Life Technologies, Cat. 35050061). Twelve dilutions were setup in nuclease free water (Table E-16).
For each well, 0.5 μL of Lipofectamine 2000 were mixed with 9.5 μL of Opti MEM I reduced serum medium (Life Technologies, Cat. 31985062) and incubated for 5 minutes. Following incubation, 10 μL of each of the candidates at the reported concentrations was mixed with the diluted Lipofectamine 2000 by gentle pipetting. The mixture was then incubated for 20 minutes at room temperature to allow for complex formation. During this time the cell growth medium was replaced with 80 μL of fresh antibiotic free MEM as previously described. 20 μL of lipid-oligo complex was gently mixed into each well bringing the total volume to 100 μL. The cells were then incubated for 24 hours at 37° C. in a CO2 incubator.
After 24 hour incubation the cell growth medium was removed and RNA was extracted using a Dynabeads mRNA Direct kit (Life Technologies, Cat. 61012) per the instructions provided in the kit manual without modifications. This magnetic Oligo (dT)^25 bead system allows for cost-effective and robust high-throughput poly (A) RNA extraction circumventing DNAse treatment. RNA was eluted in nuclease-free water and stored at −80° C.
10 μL of RNA was used in a 20 μL cDNA synthesis reaction using a High Capacity cDNA Reverse Transcription Kit (Life Technologies, Cat. 4374967) using the kit protocol with RNAse Inhibitor. The reverse transcription was performed in a 96-well format on a C1000 Touch thermal cycler (Biorad, Cat. 185-1196EDU).
Gene expression was measured by quantitative PCR using a LightCycler® 480 SYBR Green I Master (Roche, Cat. 04707516001) on LightCycler 480 Real-Time PCR instrument. Primers for the Homo Sapiens sequences of the target Apolipoprotein B (Apo B) (NM_000384) and endogenous control Glyceralydhyde-3-phosphate dehydrogenase (GAPDH) (NM_002046) were designed and ordered from IDT (Table E-17).
Measurement of the target and endogenous control was performed in separate wells using material from the same cDNA template. SYBR green assay PCR conditions were setup as described in the SYBR Green I Master protocol (Table E-18).
The data is a result of 3 biological replicates. All samples were compared to Naïve untransfected control. The following results were observed when evaluating gene expression by real-time PCR using SYBR green (Table E-19, FIG. 5).

A further series deals with Mouse B Cells. To be noted: mean and std. dev. of at least 3 experiments, compared to wells with no added ODN, cited from earlier work.
Another series has as its system Murine IL-6 secretion. To be noted: cited from earlier work.
The mark [2] stands for this setting: Apo B mRNA, Hep3B cells, 24 hours after transfection.
Where [3] appears, read: T cell depleted spleen cells from DBA/2 mice, phosphodiester O-ODN 20 μM, 24 hr, mean ± SD of triplicates.

In general, IC50 refers to the concentration that inhibits the measured activity by half. The pIC50 is −log10 of the IC50, conventionally taken in molar units.

pIC50: −log10 of the molar value. Where two headings read alike, the source gives them in different places. Strand notation (5' to 3'): a small letter for the sugar, then the base; units joined by * are phosphorothioate-linked, units joined directly phosphodiester-linked; [ ] holds rarer units or linkages, { } end groups; capitals alone tell only the bases. [Rp] = phosphorothioate linkage, Rp; [Sp] = phosphorothioate linkage, Sp; e = 2'-O-(2-methoxyethyl) (MOE); [5mC] = 5-methylcytosine; d = 2'-deoxy (DNA)

For “(Rp, Rp, Rp, Rp, Rp, Sp, Sp, Sp, Sp, Sp, Sp, Sp, Sp, Sp, Rp, Rp, Rp, Rp, Rp)-d[GsCsCsTsCsAsGsTsCsTsGsCsTsTsCsGsCsAsCsC] (DNA GCCTCAGTCTGCTTCGCACC; DNA, linkages [Rp]5 [Sp]9 [Rp]5 (s phosphorothioate, o phosphodiester), methylation of C not given here) [Oligonucleotide 103]”, the “Tm (° C.) ± 0.5” value in the series on complementary RNA came to 63.4 °C. For the same compound, in series [1] (setting [2]), the IC50 was 6 nM. In addition, the pIC50 in series [1] (Apo B mRNA, Hep3B cells) is 8.24. Besides, in the series with Mouse B Cells (US 6,239,116 Table 1), the “Stimulation Index, 3H Uridine” value was 6.1 ± 1.4 and the “Stimulation Index, IgM Production” value is 19.2 ± 5.2. Also, the “Stimulation Index, 3H Uridine” value in the series on Mouse B Cells is given as 6.1 ± 1.4.

With “(Rp, Sp, Rp, Sp, Rp, Sp, Rp, Sp, Rp, Sp, Rp, Sp, Rp, Sp, Rp, Sp, Rp, Sp, Rp)-d[GsCsCsTsCsAsGsTsCsTsGsCsTsTsCsGsCsAsCsC] (DNA GCCTCAGTCTGCTTCGCACC; DNA, linkages [Rp][Sp][Rp][Sp][Rp][Sp][Rp][Sp][Rp][Sp][Rp][Sp][Rp][Sp][Rp][Sp][Rp][Sp][Rp] (s phosphorothioate, o phosphodiester), methylation of C not given here) [Oligonucleotide 107]”, in the series on complementary RNA, the “Tm (° C.) ± 0.5” value is 64.5 °C. The IC50 in series [1] (setting [2]) came to 4 nM. The pIC50 in series [1] (Apo B mRNA, Hep3B cells) is around 8.38. Moreover, the “activity compared to Mipomersen (120)” value in series [1] was “more active”.

Take “(Rp, Rp, Rp, Sp, Sp, Sp, Sp, Sp, Sp, Sp, Sp, Sp, Sp, Sp, Sp, Sp, Rp, Rp, Rp)-d[GsCsCsTsCsAsGsTsCsTsGsCsTsTsCsGsCsAsCsC] (DNA GCCTCAGTCTGCTTCGCACC; DNA, linkages [Rp]3 [Sp]13 [Rp]3 (s phosphorothioate, o phosphodiester), methylation of C not given here) [Oligonucleotide 110]”: in the series with complementary RNA, the “Tm (° C.) ± 0.5” value came to 62.9 °C. Moreover, the IC50 in series [1] (setting [2]) turned out to be 7 nM. Besides, the pIC50 in series [1] (Apo B mRNA, Hep3B cells) is 8.13.

As for `C[Si](C)(C)C[C@@H](O)[C@@H]1CCCN1` [Compound 5a, (S)-2-(Trimethylsilyl)-1-((S)-1-pyrrolidin-2-yl)ethanol], the “IL-6” value with Murine IL-6 secretion (setting [3]) and in the series with Murine IL-6 secretion (murine IL-6 secretion) was 1096.4 ± 372.0 pg/mL throughout.

Consider “(Sp, Rp, Sp, Rp, Sp, Rp, Sp, Rp, Sp, Rp, Sp, Rp, Sp, Rp, Sp, Rp, Sp, Rp, Sp)-d[GsCsCsTsCsAsGsTsCsTsGsCsTsTsCsGsCsAsCsC] (DNA GCCTCAGTCTGCTTCGCACC; DNA, linkages [Sp][Rp][Sp][Rp][Sp][Rp][Sp][Rp][Sp][Rp][Sp][Rp][Sp][Rp][Sp][Rp][Sp][Rp][Sp] (s phosphorothioate, o phosphodiester), methylation of C not given here) [Oligonucleotide 108]”, for which the “Tm (° C.) ± 0.5” value in the series with complementary RNA came to 64.8 °C. For the same compound, in series [1] (setting [2]), the IC50 was 3 nM. Also, the pIC50 in series [1] (Apo B mRNA, Hep3B cells) was 8.50.

With “5e (DNA ATCGACTCTCGAGCCTTCTC; Z modified cytosine, further chemistry not given here) [Oligonucleotide 5e]”, the “IL-6” value with Murine IL-6 secretion (setting [3]) and in the series on Murine IL-6 secretion (murine IL-6 secretion) was 851.1 ± 114.4 pg/mL each time.

In the case of “5c (DNA ATCGACTCTCGAGCGTTCTC; chemistry not fully specified) [Oligonucleotide 5c]”, the “IL-6” value with Murine IL-6 secretion (setting [3]) and with Murine IL-6 secretion (murine IL-6 secretion) was 1783.0 ± 189.5 pg/mL throughout.

As to “119 (DNA GCCTCAGTCTGCTTCGCACC; unmodified DNA) [Oligonucleotide 119]”, the “Tm (° C.) ± 0.5” value in the series on complementary RNA amounted to 73.4 °C. In series [1] (setting [2]), the “IC50 (nM) (rounded up to single digit)” value was “Not detected”.

Consider “Mipomersen (DNA eG*e[5mC]*e[5mC]*eT*e[5mC]*dA*dG*dT*d[5mC]*dT*dG*d[5mC]*dT*dT*d[5mC]*eG*e[5mC]*eA*e[5mC]*e[5mC]) [Oligonucleotide 120, "Mipomersen, which is a stereorandom oligonucleotide mixture (Oligonucleotides 104, 105 ... compared to 120)", reference compound]”, for which the “Tm (° C.) ± 0.5” value with complementary RNA turned out to be 65.3 °C. Moreover, the IC50 in series [1] (setting [2]) was 4 nM. In addition, in series [1] (Apo B mRNA, Hep3B cells), the pIC50 was 8.36.

In the case of “5b (DNA ATGGAAGGTCCAACGTTCTC; chemistry not given here) [Oligonucleotide 5b]”, the “IL-6” value with Murine IL-6 secretion (setting [3]) and in the series on Murine IL-6 secretion (murine IL-6 secretion) was 1124.5 ± 126.2 pg/mL in each case.

Consider “(Sp, Sp, Sp, Rp, Rp, Rp, Rp, Rp, Rp, Rp, Rp, Rp, Rp, Rp, Rp, Rp, Sp, S, Sp)d[GsCsCsTsCsAsGsTsCsTsGsCsTsTsCsGsCsAsCsC] (DNA GCCTCAGTCTGCTTCGCACC; DNA, linkages [Sp]3 [Rp]13 [Sp]3 (s phosphorothioate, o phosphodiester), methylation of C not given here) [Oligonucleotide 109]”, for which the “Tm (° C.) ± 0.5” value with complementary RNA came out at 65.8 °C. Also, the IC50 in series [1] (setting [2]) was 2 nM. Also, the pIC50 in series [1] (Apo B mRNA, Hep3B cells) is 8.76. Further, in series [1], the “activity compared to Mipomersen (120)” value was “more active” and the “potency compared to the corresponding stereorandom oligonucleotide mixture (Oligonucleotide 118)” value is “more potent”.

Take “(Rp, Rp, Sp, Rp, Rp, Sp, Rp, Rp, Sp, Rp, Rp, Sp, Rp, Rp, Sp, Rp, Rp, Sp, Rp)-d[GsCsCsTsCsAsGsTsCsTsGsCsTsTsCsGsCsAsCsC] (DNA GCCTCAGTCTGCTTCGCACC; DNA, linkages [Rp][Rp][Sp][Rp][Rp][Sp][Rp][Rp][Sp][Rp][Rp][Sp][Rp][Rp][Sp][Rp][Rp][Sp][Rp] (s phosphorothioate, o phosphodiester), methylation of C not given here) [Oligonucleotide 114]”: the “Tm (° C.) ± 0.5” value with complementary RNA was 65.2 °C. Besides, the IC50 in series [1] (setting [2]) was 5 nM. Moreover, in series [1] (Apo B mRNA, Hep3B cells), the pIC50 is 8.28.

Take “(Rp, Sp, Rp, Rp, Sp, Rp, Rp, Sp, Rp, Rp, Sp, Rp, Rp, Sp, Rp, Rp, Sp, Rp, Rp)d[GsCsCsTsCsAsGsTsCsTsGsCsTsTsCsGsCsAsCsC] (DNA dG[Rp]dC[Sp]dC[Rp]dT[Rp]dC[Sp]dA[Rp]dG[Rp]dT[Sp]dC[Rp]dT[Rp]dG[Sp]dC[Rp]dT[Rp]dT[Sp]dC[Rp]dG[Rp]dC[Sp]dA[Rp]dC[Rp]dC) [Oligonucleotide 116]”: in the series with complementary RNA, the “Tm (° C.) ± 0.5” value amounted to 64.8 °C. In addition, the IC50 in series [1] (setting [2]) amounted to 2 nM. Also, in series [1] (Apo B mRNA, Hep3B cells), the pIC50 was 8.72. Moreover, in series [1], the “activity compared to Mipomersen (120)” value is recorded as “more active” and the “potency compared to the corresponding stereorandom oligonucleotide mixture (Oligonucleotide 118)” value is given as “more potent”.

As to “(Sp, Rp, Rp, Rp, Rp, Rp, Rp, Rp, Rp, Rp, Rp, Rp, Rp, Rp, Rp, Rp, Rp, Rp, Sp)-d[GsCsCsTsCsAsGsTsCsTsGsCsTsTsCsGsCsAsCsC] (DNA GCCTCAGTCTGCTTCGCACC; DNA, linkages [Sp]1 [Rp]17 [Sp]1 (s phosphorothioate, o phosphodiester), methylation of C not given here) [Oligonucleotide 105]”, the “Tm (° C.) ± 0.5” value with complementary RNA worked out at 66.5 °C. Further, the IC50 in series [1] (setting [2]) is 3 nM. The pIC50 in series [1] (Apo B mRNA, Hep3B cells) was 8.54. In series [1], the “activity compared to Mipomersen (120)” value was “more active” and the “potency compared to the corresponding stereorandom oligonucleotide mixture (Oligonucleotide 118)” value is on record as “more potent”.

The values above are taken from patent US10590413B2, “Chiral control” (WAVE LIFE SCIENCES LTD., priority 2012, dated 2020).
